# Source: patent US20260076973A1 (priority 2023, published 2026)
# Where a name gives a salt, the structure may show the parent alone. Read-outs that look alike come from different tables or passages of the source. Where a SMILES comes first, the peptide text is derived from it.
# Tests used:
# VeroE6 cells = assay: Cytotoxicity counter screen in Vero E6 cells (Cell Titer-Glo); settings: read-out: Cytotoxicity CC50; reference compounds, Vero E6 cells, 72 hours
# SARS-CoV-2 (WA1) = assay: microbe, parasite or virus in culture; type: cell-based; settings: for antiviral effect of positive controls in the CPE assay: SARS-CoV-2 CPE assay
# [1] = Cytotoxicity counter screen in Vero E6 cells (Cell Titer-Glo); settings: African green monkey
# OC43 virus = assay: OC43 coronavirus infection assay in Huh7.5 cells; type: cell-based; settings: read-out: OC43 IC50
# 229E virus = assay: 229E coronavirus infection assay in Huh7.5 cells; type: cell-based; settings: read-out: 229E IC50
# [2] = tested on: SARS CoV-2 nanoluciferase reporter virus (NLRV); assay: microbe, parasite or virus in culture; type: cell-based; settings: Severe acute respiratory syndrome coronavirus 2, A549-ACE2, 72 h
# [3] = Severe acute respiratory syndrome coronavirus 2, Vero C1008, 72 h, reference compounds, SARS-CoV-2 (WA1) CPE assay, Round 2, Vero E6, 72 hours, read-out: Antiviral IC50
# [4] = Betacoronavirus 1, OC43, Huh7.5, 72 h
# [5] = Severe acute respiratory syndrome coronavirus 2, Vero C1008
# [6] = Severe acute respiratory syndrome coronavirus 2, Vero C1008, VIRADEM compounds, SARS-CoV-2(WA1) CPE assay, Round 2, concentration range 1000-0.05 nM, Vero E6, read-out: IC50
# [7] = VIRADEM compounds, SARS-CoV-2(WA1) CPE assay, Round 2, concentration range 1000-0.05 nM, Vero E6, read-out: IC50
compound,measurement,setting,value
"CC(C)C[C@H](NC(=O)OCc1ccccc1)C(=O)N[C@@H](CC(C)C)C(=O)N[C@@H](Cc1ccc(O)cc1)C(=O)CF [Calpain Inhibitor IV, reference compound] (HELM PEPTIDE1{[O=C(OCc1ccccc1)[*:2]].L.L.Y.[FC[*:1]]}$$$$V2.0)",CC50,VeroE6 cells,> 7170 nM
same,antiviral effect of positive controls in the CPE assay,SARS-CoV-2 (WA1),dose dependent antiviral effect
same,IC50,"SARS-CoV-2 (WA1); reference compounds, SARS-CoV-2 (WA1) CPE assay, Round 2, Vero E6, 72 hours, read-out: Antiviral IC50",240 nM
"CCN(CC)CCCC(C)Nc1ccnc2cc(Cl)ccc12 (stereo not shown) [Chloroquine, reference compound]",CC50 at 72 h,[1],> 30000 nM
same,antiviral effect of positive controls in the CPE assay,SARS-CoV-2 (WA1),dose dependent antiviral effect
same,IC50,SARS-CoV-2 (WA1); [3],4030 nM
"CCN(CCO)CCCC(C)Nc1ccnc2cc(Cl)ccc12 (stereo not shown) [Hydroxychloroquine, reference compound]",CC50 at 72 h,[1]; Vero E6 cells,> 30000 nM
same,IC50,SARS-CoV-2 (WA1); [3],2100 nM
"CCC(CC)COC(=O)[C@H](C)N[P@](=O)(OC[C@H]1O[C@@](C#N)(c2ccc3c(N)ncnn23)[C@H](O)[C@@H]1O)Oc1ccccc1 [Remdesivir, reference compound]",CC50 at 72 h,[1],> 30000 nM
same,IC50,OC43 virus; [4],9.7 nM
same,IC50,SARS-CoV-2 (WA1); [5],7000 to 10000 nM
same,IC50,"SARS-CoV-2 (WA1); Severe acute respiratory syndrome coronavirus 2, Vero C1008, 72 h, read-out: Antiviral IC50",10800 nM
same,Selectivity Index (CC50/IC50),"SARS-CoV-2 (WA1); reference compounds, Round 2",>2.8
same,IC50,"229E virus; Huh7.5, 48 h",13 nM
Cc1ccc(Nc2nc(Nc3ccc(C)c(C)c3)nc(N3CCOCC3)n2)cc1 [VIRADEM-11141],IC50,[2],97 nM
same,IC90,[2],118 nM
same,IC50,OC43 virus; [4],1650 nM
same,IC50,SARS-CoV-2 (WA1); [5],120 nM
same,IC50,"229E virus; Huh7.5, 48 h",260 nM
"CC(=O)Nc1ccc(Nc2nc(Nc3ccc(Cl)cc3)nc(N3CCOCC3)n2)cc1 [VIRADEM-11847, N-{4-[4-(4-Chlorophenylamino)-6-morpholin-4-yl-[1,3,5]triazin-2-ylamino]-phenyl}-acetamide]",IC50,[2],32 nM
same,IC90,[2],41 nM
same,IC50,"OC43 virus; Betacoronavirus 1, OC43, 72 h, Huh7.5 cells, fixed 3 days after infection",992 nM
same,IC50,SARS-CoV-2 (WA1); [6],20 nM
same,IC50,"229E virus; 48 h, Huh7.5 cells, fixed 2 days after infection",138 nM
"CC(=O)Nc1ccc(Nc2nc(Nc3ccc(C)c(C)c3)nc(N3CCOCC3)n2)cc1 [VIRADEM-11918, N-{4-[4-(3,4-Dimethylphenylamino)-6-morpholin-4-yl-[1,3,5]triazin-2-ylamino]phenyl}-acetamide]",IC50,[2],19 nM
same,IC90,[2],29 nM
"COc1ccc(Nc2nc(N3CCOCC3)nc(N3CCCc4ccccc43)n2)cc1 [VIRADEM-15272, [4-(3,4-Dihydro-2H-quinolin-1-yl)-6-morpholin-4-yl-[1,3,5]triazin-2-yl]-(4-methoxyphenyl)-amine]",IC50,SARS-CoV-2 (WA1); [6],> 1000 nM
"Cc1ccc(Nc2nc(N3CCOCC3)nc(N3CCCc4ccccc43)n2)cc1C [VIRADEM-15278, [4-(3,4-Dihydro-2-H-quinolin-1-yl)-6-morpholin-4-yl-[1,3,5]triazin-2-yl]-(3,4-dimethylphenyl)-amine]",IC50,SARS-CoV-2 (WA1); [7],120 nM
"Cc1ccc(Nc2nc(Nc3cccc4ccccc34)nc(N3CCOCC3)n2)cc1 [VIRADEM-15279, 6-Morpholin-4-yl-N-naphtalen-1-yl-N^1-p-tolyl-[1,3,5]triazine-2,4-diamine]",IC50,SARS-CoV-2 (WA1); [7],80 nM
"Cc1ccc(S(=O)(=O)NNc2nc(N3CCOCC3)nc(N3CCOCC3)n2)cc1 [VIRADEM-15295, N-(4,6-Dimorpholin-4-yl-[1,3,5]triazin-2-yl)-N^1-tozylhydrazin]",IC50,SARS-CoV-2 (WA1); [7],> 1000 nM
"c1ccc2c(c1)CCN2c1nc(N2CCOCC2)nc(N2CCOCC2)n1 [VIRADEM-15355, 1-(4,6-Dimorpholin-4-yl-[1,3,5]triazin-2-yl)-2,3-dihydro-1H-indole]",IC50,SARS-CoV-2 (WA1); [6],> 1000 nM
"COc1ccc(Nc2nc(Nc3ccc(C(N)=O)cc3)nc(N3CCOCC3)n2)cc1 [VIRADEM-15356, 4-[4-(4-Methoxyphenylamino)-6-morpholin-4-yl-[1,3,5]triazin-2-ylamino]-benzamide]",IC50,SARS-CoV-2 (WA1); [6],120 nM
"NC(=O)C1CCN(c2nc(N3CCOCC3)nc(N3CCOCC3)n2)CC1 [VIRADEM-15361, 1-(4,6-Dimorpholin-4-yl-[1,3,5]triazin-2-yl)-piperidine-4-carboxylic acid amide]",IC50,SARS-CoV-2 (WA1); [6],> 1000 nM
"C1CCCN(c2nc(N3CCOCC3)nc(N3CCOCC3)n2)CC1 [VIRADEM-16523, 1-(4,6-Dimorpholin-4-yl-[1,3,5]triazin-2-yl)-azepane]",IC50,SARS-CoV-2 (WA1); [6],> 1000 nM
COc1ccc(Nc2nc(Nc3cccc(C)c3)nc(N3CCOCC3)n2)cc1 [hydrochloride],IC50,SARS-CoV-2 (WA1); [5],230 nM
"N-(3-Chlorophenyl)-N^1-phenyl)-6-pyrrolidin-1-yl-[1,3,5]triazine-2,4-diamine hydrochloride [VIRADEM-12312]",IC50,SARS-CoV-2 (WA1); [7],> 1000 nM
"N-(3-Fluorophenyl)-6-pyrrolidin-1-yl-1,3,5]triazine-2,4-diamine hydrochloride [VIRADEM-12180]",IC50,SARS-CoV-2 (WA1); [7],> 1000 nM
